Measured values: patent US9260429B2, “Pyrido[3,4-B]indoles and methods of use” (Medivation Technologies, Inc., priority 2008, dated 2016)
Where two headings read alike, the source gives them in different places.

Key:
[1] = molecular target: T1, human recombinant histamine H1 receptor (Homo sapiens, UniProt P35367); assay: Histamine H1 radioligand binding ([3H]Pyrilamine); conditions: for inhibition at 3 µM: compound concentration 3 μM; for inhibition at 10 µM: compound concentration 10 μM
T1 construct: expressed in transfected cells; host or cells: CHO cells
T1 sequence (P35367 whole entry): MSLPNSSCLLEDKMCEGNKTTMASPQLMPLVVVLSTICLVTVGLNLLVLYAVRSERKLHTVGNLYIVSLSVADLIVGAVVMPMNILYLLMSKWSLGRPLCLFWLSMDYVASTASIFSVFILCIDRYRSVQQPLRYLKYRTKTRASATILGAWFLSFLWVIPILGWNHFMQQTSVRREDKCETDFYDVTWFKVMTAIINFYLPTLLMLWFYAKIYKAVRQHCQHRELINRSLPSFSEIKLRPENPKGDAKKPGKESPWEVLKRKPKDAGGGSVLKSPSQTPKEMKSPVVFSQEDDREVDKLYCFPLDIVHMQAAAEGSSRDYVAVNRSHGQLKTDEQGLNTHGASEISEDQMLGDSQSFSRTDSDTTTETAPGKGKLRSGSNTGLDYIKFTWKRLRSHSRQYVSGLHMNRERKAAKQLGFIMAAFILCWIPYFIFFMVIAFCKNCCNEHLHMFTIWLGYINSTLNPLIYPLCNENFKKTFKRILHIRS
Procedure, shortened: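 Binding to the human recombinant histamine H1 receptor, expressed in CHO cells, was measured in a modified Tris-HCl buffer (50 mM Tris-HCl, pH 7.4, 2 mM MgCl2, 100 mM NaCl, 250 mM Sucrose). Compounds were incubated with 1.2 nM [3H]Pyrilamine for 180 minutes at 25° C, with 1 μM pyrilamine defining non-specific binding. After filtration and washing, filter counts gave percent inhibition of specific binding.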

[2] = molecular target: T2, human recombinant histamine H2 receptor (Homo sapiens, UniProt P25021); assay: Histamine H2 radioligand binding ([125I]Aminopotentidine)
T2 construct: expressed in transfected cells; host or cells: CHO-K1 cells
T2 sequence (P25021 whole entry): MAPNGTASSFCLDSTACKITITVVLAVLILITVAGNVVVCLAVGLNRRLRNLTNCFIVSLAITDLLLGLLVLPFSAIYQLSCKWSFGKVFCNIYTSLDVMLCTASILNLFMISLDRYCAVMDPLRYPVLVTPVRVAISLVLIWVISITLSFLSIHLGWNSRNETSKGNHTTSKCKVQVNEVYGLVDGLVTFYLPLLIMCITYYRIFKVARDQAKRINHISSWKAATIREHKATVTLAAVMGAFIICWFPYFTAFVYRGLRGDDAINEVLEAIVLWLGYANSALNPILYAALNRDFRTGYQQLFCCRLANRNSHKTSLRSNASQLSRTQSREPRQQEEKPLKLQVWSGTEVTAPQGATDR
Procedure, shortened: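 Membranes of CHO-K1 cells expressing human H2 receptor incubated with 0.1 nM [125I]aminopotentidine, 120 min, 25 °C, 50 mM phosphate pH 7.4; nonspecific binding defined with 3 μM tiotidine.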

[3] = molecular target: T3, human recombinant serotonin (5-Hydroxytryptamine) 5-HT2A receptor (Homo sapiens, UniProt P28223); assay: Serotonin 5-HT2A radioligand binding ([3H]Ketanserin); conditions: for inhibition at 0.003 µM: compound concentration 3 nM; for inhibition at 0.01 µM: compound concentration 10 nM; for inhibition at 0.03 µM: compound concentration 0.03 μM; for inhibition at 0.1 µM: compound concentration 0.1 μM; for inhibition at 0.3 µM: compound concentration 0.3 μM
T3 construct: expressed in transfected cells; host or cells: CHO-K1 cells
T3 sequence (P28223 whole entry): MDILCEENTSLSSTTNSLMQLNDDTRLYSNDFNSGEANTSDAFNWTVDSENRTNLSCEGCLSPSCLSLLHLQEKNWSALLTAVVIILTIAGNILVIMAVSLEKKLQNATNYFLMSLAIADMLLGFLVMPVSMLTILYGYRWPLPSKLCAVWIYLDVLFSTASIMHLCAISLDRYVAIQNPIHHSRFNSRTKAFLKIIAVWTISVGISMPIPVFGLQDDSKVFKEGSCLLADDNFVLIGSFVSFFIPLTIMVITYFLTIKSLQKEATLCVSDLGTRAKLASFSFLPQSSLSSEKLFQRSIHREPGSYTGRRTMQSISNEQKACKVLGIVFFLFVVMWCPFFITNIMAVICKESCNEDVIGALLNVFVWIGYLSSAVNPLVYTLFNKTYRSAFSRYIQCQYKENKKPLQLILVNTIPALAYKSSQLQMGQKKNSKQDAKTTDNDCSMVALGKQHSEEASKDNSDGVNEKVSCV
Procedure, shortened: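 Membranes from CHO-K1 cells expressing the receptor, in 50 mM Tris-HCl pH 7.4, incubated 60 min at 25° C with 0.5 nM [3H]Ketanserin; 1 μM Mianserin defines non-specific binding. Filtration and counting; values are % inhibition of specific binding at 1 μM or lower, 1% DMSO.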

[4] = molecular target: T4, human recombinant serotonin (5-Hydroxytryptamine) 5-HT2C receptor (Homo sapiens, UniProt P28335); assay: Serotonin 5-HT2C radioligand binding ([3H]Mesulergine); conditions: for inhibition at 0.003 µM: compound concentration 3 nM; for inhibition at 0.01 µM: compound concentration 10 nM; for inhibition at 0.03 µM: compound concentration 0.03 μM; for inhibition at 0.1 µM: compound concentration 0.1 μM; for inhibition at 0.3 µM: compound concentration 0.3 μM
T4 construct: expressed in transfected cells; host or cells: CHO-K1 cells
T4 sequence (P28335 33-458): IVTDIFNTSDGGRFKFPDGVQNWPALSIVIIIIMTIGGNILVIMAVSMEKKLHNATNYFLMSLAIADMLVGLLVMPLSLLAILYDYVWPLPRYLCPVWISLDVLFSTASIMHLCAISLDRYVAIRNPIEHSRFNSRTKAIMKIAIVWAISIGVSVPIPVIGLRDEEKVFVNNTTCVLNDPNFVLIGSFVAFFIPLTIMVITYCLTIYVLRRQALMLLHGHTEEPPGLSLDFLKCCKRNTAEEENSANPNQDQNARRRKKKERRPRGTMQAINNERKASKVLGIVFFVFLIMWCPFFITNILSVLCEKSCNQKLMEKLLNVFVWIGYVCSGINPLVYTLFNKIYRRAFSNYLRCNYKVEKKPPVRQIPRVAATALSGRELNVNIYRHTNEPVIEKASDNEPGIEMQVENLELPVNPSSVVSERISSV
Procedure: Compounds of the invention were incubated with 1 nM [^3H]Mesulergine for 60 minutes at 25° C. Non-specific binding was estimated in the presence of 1 μM Mianserin. Receptor proteins were filtered and washed, the filters were then counted to determine [^3H]Mesulergine specifically bound. […] Biochemical assay results are presented as the percent inhibition of specific binding in Table 5.

[5] = molecular target: T5, human recombinant serotonin (5-Hydroxytryptamine) 5-HT6 receptor (Homo sapiens, UniProt P50406); assay: Serotonin 5-HT6 radioligand binding ([3H]LSD); conditions: for inhibition at 0.003 µM: compound concentration 3 nM; for inhibition at 0.01 µM: compound concentration 10 nM; for inhibition at 0.03 µM: compound concentration 0.03 μM; for inhibition at 0.1 µM: compound concentration 0.1 μM; for inhibition at 0.3 µM: compound concentration 0.3 μM
T5 construct: expressed in transfected cells; host or cells: human HeLa cells
T5 sequence (P50406 whole entry): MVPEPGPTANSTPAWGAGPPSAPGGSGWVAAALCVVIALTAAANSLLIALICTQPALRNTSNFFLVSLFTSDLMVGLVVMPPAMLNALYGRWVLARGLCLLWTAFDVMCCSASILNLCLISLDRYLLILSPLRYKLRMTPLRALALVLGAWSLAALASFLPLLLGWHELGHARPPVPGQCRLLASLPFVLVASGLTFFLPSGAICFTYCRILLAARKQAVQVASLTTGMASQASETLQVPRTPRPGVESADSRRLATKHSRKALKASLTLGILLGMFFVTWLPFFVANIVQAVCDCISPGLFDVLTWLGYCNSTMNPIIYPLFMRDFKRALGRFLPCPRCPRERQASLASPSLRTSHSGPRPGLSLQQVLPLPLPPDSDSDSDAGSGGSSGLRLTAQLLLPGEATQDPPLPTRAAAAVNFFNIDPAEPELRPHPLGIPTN
Procedure, shortened: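 Human 5-HT6 receptor expressed in HeLa cells, in Tris-HCl pH 7.4 with 150 mM NaCl, ascorbic acid and BSA. Compounds at 1 μM or lower (1% DMSO) incubated 120 min at 37° C with 1.5 nM [3H]LSD. Non-specific binding defined with serotonin; filter counting gives % inhibition of specific binding.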

[6] = 1 μM, read-out: Binding data (Percentage Inhibition) Histamine Binding (1 μM) H1
[7] = 1 μM, inhibition of specific [125I]Aminopotentidine binding, read-out: Binding data (Percentage Inhibition) Histamine Binding (1 μM) H2
[8] = 1 h, read-out: Percent Inhibition of ligand binding Serotonin (1 μM ligand concentration) 5-HT2A
[9] = 1 h, read-out: Percent Inhibition of ligand binding Serotonin (1 μM ligand concentration) 5-HT2C
[10] = 2 h, read-out: Percent Inhibition of ligand binding Serotonin (1 μM ligand concentration) 5-HT6
[11] = compound concentration 1 μM, read-out: Percentage inhibition of ligand binding to H1 receptor
[12] = read-out: Percentage inhibition of ligand binding to H1 receptor
[13] = compound concentration 1 μM, read-out: Percentage inhibition of ligand binding to H2 receptor
[14] = read-out: Percentage inhibition of ligand binding to 5-HT2A receptor
[15] = compound concentration 1 μM, read-out: Percentage inhibition of ligand binding to 5-HT2A receptor
[16] = read-out: Percentage inhibition of ligand binding to 5-HT2C receptor
[17] = compound concentration 1 μM, read-out: Percentage inhibition of ligand binding to 5-HT2C receptor
[18] = read-out: Percentage inhibition of ligand binding to 5-HT6 receptor
[19] = compound concentration 1 μM, read-out: Percentage inhibition of ligand binding to 5-HT6 receptor

C/C(=C/n1c2c(c3cc(C)ccc31)CCN(C)C2C)c1ccccc1F (stereo not drawn) [Compound 165]
inhibition at 1 µM [1, 6]: 21%
inhibition at 1 µM [2, 7]: 22%
inhibition at 1 µM [3, 8]: 85%
inhibition at 1 µM [4, 9]: 93%
inhibition at 1 µM [5, 10]: 46%

COc1ccc(C(O)Cn2c3c(c4cc(Cl)ccc42)CCN(C)C3)cc1OC (stereo not drawn) [Compound 70]
inhibition at 1 µM [1, 6]: 39%
inhibition at 1 µM [2, 7]: 1%
inhibition at 1 µM [3, 8]: 56%
inhibition at 1 µM [4, 9]: 63%
inhibition at 1 µM [5, 10]: 21%

C/C(=C\n1c2c(c3cc(Cl)ccc31)CCN(C)C2)c1ccc(F)cc1 [Compound 90, (E)-6-chloro-9-(2-(4-fluorophenyl)prop-1-enyl)-2-methyl-2,3,4,9-tetrahydro-1H-pyrido[3,4-b]indole]
inhibition at 1 µM [1, 6]: 29%
inhibition at 1 µM [1, 11]: 48%
inhibition at 3 µM [1, 12]: 76%
inhibition at 10 µM [1, 12]: 94%
inhibition at 1 µM [2, 7]: 64%
inhibition at 1 µM [2, 13]: 64%
inhibition at 1 µM [3, 8]: 97%
inhibition at 0.003 µM [3, 14]: 1%
inhibition at 0.01 µM [3, 14]: 9%
inhibition at 0.03 µM [3, 14]: 31%
inhibition at 0.1 µM [3, 14]: 64%
inhibition at 0.3 µM [3, 14]: 87%
inhibition at 1 µM [3, 15]: 97%
inhibition at 1 µM [4, 9]: 99%
inhibition at 0.003 µM [4, 16]: 22%
inhibition at 0.01 µM [4, 16]: 37%
inhibition at 0.03 µM [4, 16]: 65%
inhibition at 0.1 µM [4, 16]: 82%
inhibition at 0.3 µM [4, 16]: 93%
inhibition at 1 µM [4, 17]: 99%
inhibition at 1 µM [5, 10]: 98%
inhibition at 0.003 µM [5, 18]: 16%
inhibition at 0.01 µM [5, 18]: 32%
inhibition at 0.03 µM [5, 18]: 58%
inhibition at 0.1 µM [5, 18]: 81%
inhibition at 0.3 µM [5, 18]: 94%
inhibition at 1 µM [5, 19]: 98%

CN1CCc2c(n(CC(=O)Nc3ccc(F)cc3)c3ccc(Cl)cc23)C1 [Compound 15, 2-(6-chloro-1,2,3,4-tetrahydro-2-methylpyrido[3,4-b]indol-9-yl)-N-(4-fluorophenyl)acetamide]
inhibition at 1 µM [1, 6]: 0%
inhibition at 1 µM [2, 7]: -3%
inhibition at 1 µM [3, 8]: 6%
inhibition at 1 µM [4, 9]: 15%
inhibition at 1 µM [5, 10]: -2%

CN1CCc2c(n(CCN3CCCCC3)c3ccc(Cl)cc23)C1 [Compound 34, 6-chloro-2,3,4,9-tetrahydro-2-methyl-9-(2-(piperidin-1-yl)ethyl)-1H-pyrido[3,4-b]indole]
inhibition at 1 µM [1, 6]: 56%
inhibition at 1 µM [2, 7]: 20%
inhibition at 1 µM [3, 8]: 31%
inhibition at 1 µM [4, 9]: 37%
inhibition at 1 µM [5, 10]: 16%

Cc1ccc2c(c1)c1c(n2CC(=O)O)CN(C)CC1 [Compound 53, 2-(1,2,3,4-tetrahydro-2,6-dimethylpyrido[3,4-b]indol-9-yl)acetic acid]
inhibition at 1 µM [1, 6]: 5%
inhibition at 1 µM [2, 7]: 0%
inhibition at 1 µM [3, 8]: -6%
inhibition at 1 µM [4, 9]: -3%
inhibition at 1 µM [5, 10]: -8%

Cc1ccc2c(c1)c1c(n2CC(=O)N2CCCCC2)CN(C)CC1 [Compound 57, 2-(2,6-dimethyl-3,4-dihydro-1H-pyrido[3,4-b]indol-9(2H)-yl)-1-(piperidin-1-yl)ethanone]
inhibition at 1 µM [1, 6]: 0%
inhibition at 1 µM [2, 7]: 10%
inhibition at 1 µM [3, 8]: 28%
inhibition at 1 µM [4, 9]: 14%
inhibition at 1 µM [5, 10]: 6%

C/C(=C\n1c2c(c3cc(C)ccc31)CCN(C)C2)c1ccc(F)cc1 [Compound 91, (E)-9-(2-(4-fluorophenyl)prop-1-enyl)-2,6-dimethyl-2,3,4,9-tetrahydro-1H-pyrido[3,4-b]indole]
inhibition at 1 µM [1, 6]: 28%
inhibition at 1 µM [1, 11]: 42%
inhibition at 3 µM [1, 12]: 75%
inhibition at 10 µM [1, 12]: 95%
inhibition at 1 µM [2, 7]: 68%
inhibition at 1 µM [2, 13]: 68%
inhibition at 1 µM [3, 8]: 97%
inhibition at 0.003 µM [3, 14]: 2%
inhibition at 0.01 µM [3, 14]: 21%
inhibition at 0.03 µM [3, 14]: 54%
inhibition at 0.1 µM [3, 14]: 79%
inhibition at 0.3 µM [3, 14]: 92%
inhibition at 1 µM [3, 15]: 97%
inhibition at 1 µM [4, 9]: 104%
inhibition at 0.003 µM [4, 16]: 22%
inhibition at 0.01 µM [4, 16]: 58%
inhibition at 0.03 µM [4, 16]: 77%
inhibition at 0.1 µM [4, 16]: 87%
inhibition at 0.3 µM [4, 16]: 93%
inhibition at 1 µM [4, 17]: 104%
inhibition at 1 µM [5, 10]: 100%
inhibition at 0.003 µM [5, 18]: 15%
inhibition at 0.01 µM [5, 18]: 42%
inhibition at 0.03 µM [5, 18]: 68%
inhibition at 0.1 µM [5, 18]: 84%
inhibition at 0.3 µM [5, 18]: 96%
inhibition at 1 µM [5, 19]: 100%

CCC1c2c(c3cc(Cl)ccc3n2CCc2ccc(F)cc2)CCN1C (stereo not drawn) [Compound 78]
inhibition at 1 µM [1, 6]: 71%
inhibition at 1 µM [2, 7]: 33%
inhibition at 1 µM [3, 8]: 80%
inhibition at 1 µM [4, 9]: 101%
inhibition at 1 µM [5, 10]: 48%

CN1CCc2c(n(CCCc3ccccc3)c3ccc(Cl)cc23)C1 [Compound 29, 6-chloro-2,3,4,9-tetrahydro-2-methyl-9-(3-phenylpropyl)-1H-pyrido[3,4-b]indole]
inhibition at 1 µM [1, 6]: 98%
inhibition at 1 µM [2, 7]: 60%
inhibition at 1 µM [3, 8]: 83%
inhibition at 1 µM [4, 9]: 90%
inhibition at 1 µM [5, 10]: 62%

Cc1ccc(C(O)Cn2c3c(c4cc(C)ccc42)CCN(C)C3)cc1 (stereo not drawn) [Compound 72]
inhibition at 1 µM [1, 6]: 55%
inhibition at 1 µM [2, 7]: 19%
inhibition at 1 µM [3, 8]: 96%
inhibition at 1 µM [4, 9]: 89%
inhibition at 1 µM [5, 10]: 61%

CCC1c2c(c3cc(Cl)ccc3n2/C=C(\C)c2ccc(Cl)cc2)CCN1C (stereo not drawn) [Compound 100, 6-chloro-9-(2-(4-chlorophenyl)prop-1-enyl)-1-ethyl-2-methyl-2,3,4,9-tetrahydro-1H-pyrido[3,4-b]indole]
inhibition at 1 µM [1, 6]: 33%
inhibition at 1 µM [2, 7]: 39%
inhibition at 1 µM [3, 8]: 87%
inhibition at 1 µM [4, 9]: 98%
inhibition at 1 µM [5, 10]: 23%

CCC1c2c(c3cc(C)ccc3n2/C=C(\C)c2ccc(Cl)cc2)CCN1C (stereo not drawn) [Compound 160, 9-(2-(4-chlorophenyl)prop-1-enyl)-1-ethyl-2,6-dimethyl-2,3,4,9-tetrahydro-1H-pyrido[3,4-b]indole]
inhibition at 1 µM [1, 6]: 31%
inhibition at 1 µM [2, 7]: 67%
inhibition at 1 µM [3, 8]: 95%
inhibition at 1 µM [4, 9]: 103%
inhibition at 1 µM [5, 10]: 24%

C/C(=C\n1c2c(c3cc(C)ccc31)CCN(C)C2c1ccccc1)c1ccc(Cl)cc1 (stereo not drawn) [Compound 164, 9-(2-(4-chlorophenyl)prop-1-enyl)-2,6-dimethyl-1-phenyl-2,3,4,9-tetrahydro-1H-pyrido[3,4-b]indole]
inhibition at 1 µM [1, 6]: 12%
inhibition at 1 µM [2, 7]: 25%
inhibition at 1 µM [3, 8]: 95%
inhibition at 1 µM [4, 9]: 98%
inhibition at 1 µM [5, 10]: 16%
